Test results reported in patent publication US20140057881A1, “Composition for the Treatment of Skin Conditions” (priority 2010, published 2014).
Structures can show the parent of a compound that is named as a salt.

Assays:
Type in all cases: in vivo, human
Conditions in all cases: patient history before treatment with Example 1
[1] = Case 7: topical treatment of a person
Text: A person with several year history of an itchy rash on the dorsum of their right foot presented (see FIG. 7A). They had previously tried many creams including various antifungal treatments, antibiotics and steroids, Particularly, they had tried Kenacomb™ (Triamcinolone acetonide, nystatin, gramicidin, neomycin); Mometasone Furoate 0.1% (Elocon™); Terbinafine Hydrochloride 1.0% (Lamisil™); Clotrimazole (sold under the trade name Canestan™) and Mupirocin (2% w/w) (sold under the trade name Bactroban™). […] There were areas of broken skin with scattered scab formation.
A diagnosis of chronic dermatitis with lichenification was made and treatment commenced with the composition of Example 1.
In less than one week the rash had disappeared (FIG. 7B).

[2] = Case 1: topical treatment of a person
Text: A diagnosis of periorbital dermatitis with lichenification was made and treatment using the formulation of Example 1 commenced.

[3] = Case 8: topical treatment of a child

| Compound | outcome of previously tried treatments [1] | outcome of previously used treatments [2] | outcome of previously tried products [3] |
| --- | --- | --- | --- |
| C[C@@H]1C[C@H]2[C@@H]3CCC4=CC(=O)C=C[C@]4(C)[C@@]3(Cl)[C@@H](O)C[C@]2(C)[C@@]1(OC(=O)c1ccco1)C(=O)CCl [Mometasone Furoate 0.1%, Mometasone Furoate] | None of the treatments gave them any long term results | no long term improvement | – |
| CC(=O)OCC(=O)[C@@]1(O)CC[C@H]2[C@@H]3CCC4=CC(=O)CC[C@]4(C)[C@H]3[C@@H](O)C[C@@]21C [Hydrocosrtisone acetate 1%, Hydrocosrtisone acetate] | – | no long term improvement | no permanent improvement |
| CN(C/C=C/C#CC(C)(C)C)Cc1cccc2ccccc12 [Terbinafine Hydrochloride 1.0%, Terbinafine Hydrochloride] | None of the treatments gave them any long term results | no long term improvement | no permanent improvement |
| C/C(=C\C(=O)OCCCCCCCCC(=O)O)C[C@@H]1OC[C@H](C[C@@H]2O[C@H]2[C@@H](C)[C@H](C)O)[C@@H](O)[C@H]1O [Mupirocin (2% w/w), Mupirocin] | None of the treatments gave them any long term results | – | – |
| Clc1ccccc1C(c1ccccc1)(c1ccccc1)n1ccnc1 [Clotrimazole] | None of the treatments gave them any long term results | – | no permanent improvement |
| CCC(=O)O[C@]1(C(=O)COC(C)=O)CC[C@H]2[C@@H]3C[C@H](C)C4=CC(=O)C=C[C@]4(C)[C@H]3[C@@H](O)C[C@@]21C [Methylprednisolone aceponate] | – | – | no permanent improvement |
| CCC(=O)OCC(=O)[C@@]1(OC(=O)CC)[C@@H](C)C[C@H]2[C@@H]3CCC4=CC(=O)C=C[C@]4(C)[C@@]3(F)[C@@H](O)C[C@@]21C [Betamethasone dipropionate 0.05%, Betamethasone dipropionate] | – | – | no permanent improvement |
